Measurements from US20240158426A1, “TRANSITION METAL COMPLEX CONTAINING TETRADENTATE NITROGEN DONOR LIGAND AND ELECTROCHEMICAL BIOSENSOR COMPRISING SAME” (I-sens, Inc., priority 2020, published 2024).

Assay: Cyclic voltammetry (CV) of TPMA-based osmium complexes
Conditions: Cl^− counter ion form; Ag/AgCl reference electrode; scanning rate 10 mV/s
Description: In order to analyze electrochemical properties of the synthesized TPMA-based osmium complexes, cyclic voltammetry (CV) was used. A well-washed carbon glass electrode with a diameter of 3 mm was used as a working electrode, and an Ag/AgCl electrode was used as a reference electrode, and a Pt electrode was used as a counter electrode to measure it at a scanning rate of 10 mV/s. […] In order to find out only the position of the redox peak, the complex in a Cl^− counter ion form was measured in condition that the concentration of each substance was not constant, by measuring the Cl^− substance in a solution state during the anion exchange process. […] The change in the oxidation/reduction potential according to the type of the substituent and coordinated ligand was analyzed centering on the present complex.

[Os(TPMA)Cl2]^+(PF6^−) [Complex 18]
oxidation/reduction potential E1/2: −0.339 V
